{"source": "patent US20250230438A1", "about": "“NEURAL REPAIR THROUGH INHIBITION OF REG3A SIGNALING” (UNIVERSITY OF SOUTH CAROLINA, priority 2023, published 2025)", "key": {"[1]": {"system": "dorsal root ganglia (DRG) neurons", "experiment": "Axon growth and branching in dissociated adult mouse DRG cultures", "type": "cell-based", "conditions": "for effect on recREG3A-induced decrease in axon growth / effect on recREG3A-induced increase in axon branching: co-treatment with recREG3A", "text": "Previously, it was shown that Reg3A mRNA expression increases after nerve injury and the mRNA is transported into regenerating peripheral nerve axons and spinal cord axon. The spinal cord model used a peripheral nerve graft to support regenerating of ascending spinal cord axons after transection. To determine if REG3A protein might affect axon growth, whether the dorsal root ganglia (DRG) neurons respond to recombinant human REG3A (recREG3A) was investigated.\nshRNA depletion of Reg3A mRNA was used to determine if the endogenous REG3A protein reduces axon growth.\n(§1) Specifically, it was observed that KHSRP protein increases in regenerating sciatic nerve axons, which promotes decay of regeneration-associated mRNAs including Gap43 and Snap25 mRNAs. Thus, herein it was investigated whether REG3A effects might converge on Khsrp mRNA."}, "KHSRP": {"system": "KHSRP", "experiment": "Axonal KHSRP protein levels in DRG cultures", "type": "cell-based, mouse", "conditions": "for effect on recREG3A-dependent increase in axonal KHSRP: co-treatment with recREG3A", "text": "as §1"}, "growth cone calcium": {"system": "growth cone calcium", "experiment": "Axonal/growth cone calcium by GCaMP fluorescence in DRG spot cultures", "type": "cell-based, mouse", "conditions": "DRG spot cultures with AAV9-GCaMP", "text": "The findings above provide circumstantial but not direct evidence for elevated axoplasmic calcium as a key regulator of REG3A's effects on axons. As such, herein it was investigated whether REG3A increases calcium levels in DRG neurons using genetically encoded GCaMP fluorescent calcium indicator in DRG spot cultures. For this, DRG spot cultures were co-transduced with AAV9-GCaMP. […] Axonal calcium levels are known to increase immediately after axotomy but based on translational regulation of different axonal mRNAs that respond to elevated vs. normal axonal calcium levels, the axotomy induced increase in calcium returns to pre-injury levels within 16 hours after axotomy to allow translation of axonal mRNAs encoding regeneration-associated proteins. Thus, intra-axonal calcium levels in regenerating axons were monitored beginning at 16 hours after axotomy. The regenerating axons show an oscillatory GCaMP signal with broad peaks approximately every 50-70 min over a 4-hour period in AAV9-shCntl-transduced DRG spot cultures (FIG. 8E)."}, "eIF2α^PS51": {"system": "eIF2α^PS51", "experiment": "eIF2α^PS51 immunofluorescence in growth cones of DRG cultures", "type": "cell-based", "conditions": "acute treatment of adult mouse DRG cultures", "text": "Previously, it was observed that axonal Khsrp mRNA translation is increased by activation of the PERK and subsequent PERK-dependent serine 51 phosphorylation of the translation initiation factor eIF2a. […] PERK inhibition similar reduced the REG3A-dependent translation of axonal GFP^MYR5′/3′khsrp in FRAP assays (FIG. 9C)."}}, "note": "Entries after “also recorded” stand apart in the source; their conditions may differ.", "data": [{"molecule": "C[C@@H]1C[C@@H]([C@H](O)CC2CC(=O)NC(=O)C2)C(=O)[C@@H](C)C1", "note": "[cycloheximide]", "values": [{"measurement": "effect on recREG3A-induced decrease in axon growth", "setting": "[1]", "result": "prevented"}, {"measurement": "effect on recREG3A-induced increase in axon branching", "setting": "[1]", "result": "prevented"}, {"measurement": "effect on recREG3A-dependent increase in axonal KHSRP", "setting": "KHSRP", "result": "did not occur"}]}, {"molecule": "O=C(O)CN(CC(=O)O)c1ccccc1OCCOc1ccccc1N(CC(=O)O)CC(=O)O", "note": "[BAPTA]", "values": [{"measurement": "effect on recREG3A-dependent increase in axonal KHSRP", "setting": "KHSRP", "result": "also attenuated"}]}, {"molecule": "CC(=O)OCOC(=O)CN(CC(=O)OCOC(C)=O)c1ccccc1OCCOc1ccccc1N(CC(=O)OCOC(C)=O)CC(=O)OCOC(C)=O", "note": "[BAPTA-AM]", "values": [{"measurement": "effect on recREG3A-induced decrease in axon growth", "setting": "[1]", "result": "blocked"}, {"measurement": "effect on recREG3A-induced increase in axon branching", "setting": "[1]", "result": "blocked"}, {"measurement": "effect on recREG3A-dependent increase in axonal KHSRP", "setting": "KHSRP", "result": "attenuated"}]}, {"molecule": "recREG3A: recombinant human REG3A (recREG3A) (protein) EDFQKEVPSPRTSCPMGYKAYRSHCYALVMTPKSWFQADLVCQKRPSGHLVSILSGGEASFVSSLVNGRVDNYQDIWIGLHDPTMGQQPNGGGWEWSNSDVLNYLNWDGDPSSTVNRGHCGSLTASSGFLKWGDYYCDGTLPFVCKFKQ", "values": [{"measurement": "growth cone / intra-axonal calcium levels (GCaMP)", "setting": "growth cone calcium", "result": "significantly increased growth cone calcium"}, {"measurement": "growth cone / intra-axonal calcium levels (GCaMP)", "setting": "growth cone calcium; listed as RecREG3A", "result": "increases"}, {"measurement": "axon branching", "setting": "[1]; bath application of recREG3A, adult mouse sensory neurons", "result": "increased axon branching"}, {"measurement": "axon growth", "setting": "[1]; bath application of recREG3A, adult mouse sensory neurons, 24-hour exposure", "result": "reduced axon growth; also recorded: decreases axon extension"}, {"measurement": "eIF2α^PS51 levels in growth cones", "setting": "eIF2α^PS51", "result": "increased eIF2α^PS51 levels in growth cones"}, {"measurement": "KHSRP levels in distal axons", "setting": "KHSRP; recREG3A application", "result": "increased KHSRP levels in distal axons"}]}]}
